Results on eleven compounds are retold here after ChEMBL document CHEMBL1201862, “PubChem BioAssay data set” (2004).

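In this assay, cells in 96-well plates receive the compound at five concentrations for 48 hours. Endpoints are linearly interpolated between the surrounding concentrations. The concentration for 50% growth inhibition is given as GI50.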 Activity calls are given as the source filed them. Cut-off read from the data, not from the text of the source: active = GI50 up to about 1.1 µM and inactive = higher.

Among the test systems are CCRF-CEM; HCT-116; HL-60; HOP-62; IGROV-1; KM12; MOLT-4; NCI-H23; OVCAR-3; OVCAR-4; RPMI-8226; SF-539; SK-MEL-5; SK-OV-3; SN12C; U-251; UO-31; HCT-15; RXF 393; HOP-92.
Common to all, as to assay: inhibition of tumour cell growth, NCI panel, 48 h

`CCOC(=O)C1=C(C)N(C2OC(COC(=O)c3ccccc3)C(OC(=O)c3ccccc3)C2OC(=O)c2ccccc2)C(=S)NC1c1ccccc1` (configuration not stated): the GI50 in the experiment with CCRF-CEM was 23.1 µM (inactive); with HCT-116, 29.9 µM (inactive); with HL-60 it was 14.4 µM (inactive); in the experiment on HOP-62 it was > 100 µM (inactive); in the experiment with IGROV-1 it was 46.8 µM (inactive); in the experiment with KM12, 50.2 µM (inactive). Besides, the GI50 in the experiment with MOLT-4 is 16.1 µM (inactive); in the experiment on NCI-H23, 29.1 µM (inactive); with OVCAR-3, 21.9 µM (inactive); in the experiment with OVCAR-4 it was 29.4 µM (inactive); in the experiment on RPMI-8226, 16.1 µM (inactive); with SF-539, 54.8 µM (inactive). The GI50 with SK-MEL-5 was 18.4 µM (inactive); in the experiment with SK-OV-3, 60.1 µM (inactive); in the experiment with SN12C, 40.4 µM (inactive); in the experiment with U-251, 34.9 µM (inactive); in the experiment on UO-31, 24.2 µM (inactive).
For the compound `Cc1ccc(-c2cc(-c3ccco3)c(C#N)c(=O)n2C2OC(CO)C(O)C(O)C2O)cc1` (configuration not stated), the GI50 in the experiment with CCRF-CEM is 66.2 µM (inactive); in the experiment on HCT-116 it was 94.8 µM (inactive); in the experiment on HCT-15 it was 83.6 µM; with HL-60, > 100 µM (inactive); in the experiment with HOP-62, 49.5 µM (inactive); in the experiment on IGROV-1, 49.1 µM (inactive). For the same compound, the GI50 was 84.5 µM (inactive) in the experiment on KM12; > 100 µM (inactive) in the experiment on MOLT-4; 37.1 µM (inactive) with NCI-H23; 45.6 µM (inactive) in the experiment with OVCAR-3; 35.7 µM (inactive) with OVCAR-4; 73.3 µM (inactive) in the experiment on RPMI-8226. Further, the GI50 with RXF 393 is 48.3 µM (inactive); in the experiment on SK-MEL-5 it was 22 µM (inactive); in the experiment with SK-OV-3, 28.7 µM (inactive); in the experiment with SN12C it was 46.3 µM (inactive); in the experiment with U-251, 33.3 µM (inactive); in the experiment with UO-31, 59.6 µM (inactive).
`CCOC(=O)C(Cc1ccccc1)NC(=O)OC(C)(C)C` (configuration not stated): the GI50 in the experiment on CCRF-CEM is > 100 µM (inactive); in the experiment with HCT-116 it was > 100 µM (inactive); in the experiment on HCT-15 it was more than 100 µM; in the experiment on HL-60, > 100 µM (inactive); in the experiment on HOP-62, > 100 µM (inactive); with HOP-92, > 100 µM (inactive). Besides, the GI50 in the experiment with IGROV-1, in the experiment with KM12, in the experiment on MOLT-4, with NCI-H23, with OVCAR-3 and in the experiment on SF-539 was > 100 µM (inactive) throughout. The GI50 in the experiment on SK-OV-3, in the experiment on SN12C, in the experiment with U-251 and in the experiment with UO-31 was > 100 µM (inactive) throughout.
`COc1ccc(-c2cc(-c3cc(OC)c(OC)c(OC)c3)cc(-c3cc4ccccc4oc3=O)n2)cc1`: the GI50 was > 100 µM (inactive) with CCRF-CEM; 4.48 µM (inactive) in the experiment on HCT-116; 30.9 µM with HCT-15; > 100 µM (inactive) with HL-60; 2.25 µM (inactive) in the experiment with HOP-62; 4.07 µM (inactive) with HOP-92. The GI50 was 7.06 µM (inactive) in the experiment with IGROV-1; 12.6 µM (inactive) in the experiment with KM12; > 100 µM (inactive) in the experiment with MOLT-4; 7.87 µM (inactive) with NCI-H23; 17 µM (inactive) in the experiment with OVCAR-3; 3.94 µM (inactive) with OVCAR-4. In addition, the GI50 is 3.24 µM (inactive) in the experiment with RXF 393; 2.76 µM (inactive) with SF-539; 5.97 µM (inactive) in the experiment with SK-MEL-5; 3.83 µM (inactive) in the experiment on SK-OV-3; 8.93 µM (inactive) with SN12C; 3.54 µM (inactive) in the experiment with U-251. For the same compound, the GI50 in the experiment on UO-31 is 8.28 µM (inactive).
With `Cc1ccc(NC(=O)CC(=O)n2nc(-c3ccccc3)c(/N=N/c3ccccc3Cl)c2-c2ccccc2)cc1`, the GI50 in the experiment on CCRF-CEM is 41.4 µM (inactive); in the experiment with HCT-116, 39.5 µM (inactive); in the experiment with HCT-15, more than 10 µM; with HL-60, 0.458 µM (active); in the experiment on HOP-62, 83.8 µM (inactive); in the experiment with HOP-92, 23.6 µM (inactive). Besides, the GI50 is > 10 µM (inactive) with IGROV-1; > 10 µM (inactive) in the experiment with KM12; > 10 µM (inactive) in the experiment with MOLT-4; 39.5 µM (inactive) in the experiment with NCI-H23; > 10 µM (inactive) with OVCAR-3; 26.5 µM (inactive) in the experiment on OVCAR-4. Also, the GI50 in the experiment with RPMI-8226 is > 10 µM (inactive); in the experiment on SF-539, 76.6 µM (inactive); with SK-MEL-5, 67.1 µM (inactive); in the experiment with SK-OV-3, 27 µM (inactive); in the experiment with SN12C, > 10 µM (inactive); in the experiment with U-251, 60.8 µM (inactive). Moreover, in the experiment on UO-31, the GI50 is > 10 µM (inactive).
Take `COc1ccc2c(c1)CCN=C2Cc1cc(OC)c(OC)cc1CCCl`: the GI50 was > 100 µM (inactive) with CCRF-CEM; 44.5 µM (inactive) with HCT-116; 3.08 µM (inactive) in the experiment with HOP-62; 11.1 µM (inactive) in the experiment on HOP-92; 52.4 µM (inactive) in the experiment with IGROV-1; 33.3 µM (inactive) in the experiment with KM12. For the same compound, the GI50 is 54.8 µM (inactive) in the experiment with MOLT-4; 52 µM (inactive) with NCI-H23; 22.7 µM (inactive) in the experiment on OVCAR-3; > 100 µM (inactive) with OVCAR-4; 55 µM (inactive) with RPMI-8226; 24.9 µM (inactive) with RXF 393. Also, the GI50 was 16.2 µM (inactive) with SF-539; 17.5 µM (inactive) in the experiment with SK-MEL-5; > 100 µM (inactive) in the experiment with SK-OV-3; 48.4 µM (inactive) in the experiment with SN12C; 86.7 µM (inactive) in the experiment with U-251; 29.2 µM (inactive) in the experiment with UO-31.
`O=C1NC2=C(CCCC/C2=N\O)C12CCCCC2`: the GI50 was > 100 µM (inactive) in the experiment on HCT-116; more than 100 µM in the experiment on HCT-15; 32.7 µM (inactive) in the experiment with HL-60; > 100 µM (inactive) in the experiment on HOP-62; > 100 µM (inactive) in the experiment on IGROV-1; > 100 µM (inactive) in the experiment with KM12. For the same compound, the GI50 in the experiment with MOLT-4 is 57.8 µM (inactive); in the experiment with NCI-H23 it was > 100 µM (inactive); in the experiment with OVCAR-3, > 100 µM (inactive); with OVCAR-4 it was > 100 µM (inactive); with RXF 393, > 100 µM (inactive); in the experiment with SF-539, > 100 µM (inactive). Moreover, the GI50 in the experiment on SK-OV-3, with SN12C, in the experiment on U-251 and with UO-31 was > 100 µM (inactive) throughout.
For the compound `CCOC(=O)c1ccc(N(CCOS(=O)(=O)c2ccc(C)cc2)CCOS(=O)(=O)c2ccc(C)cc2)cc1`, the GI50 is 2.47 µM (inactive) in the experiment with CCRF-CEM; 27.3 µM (inactive) with HCT-116; more than 100 µM in the experiment with HCT-15; > 100 µM (inactive) in the experiment on HOP-92; > 100 µM (inactive) with IGROV-1; > 100 µM (inactive) with KM12. The GI50 in the experiment with MOLT-4 was 2.7 µM (inactive); in the experiment with NCI-H23, > 100 µM (inactive); in the experiment on OVCAR-3, > 100 µM (inactive); with OVCAR-4, 32.8 µM (inactive); in the experiment on RPMI-8226, 10 µM (inactive); with RXF 393, 4.49 µM (inactive). For the same compound, the GI50 is < 0.01 µM (active) in the experiment with SF-539; > 100 µM (inactive) in the experiment with SK-MEL-5; < 0.01 µM (active) with SN12C; 6.76 µM (inactive) in the experiment with U-251; 12.8 µM (inactive) with UO-31.
In the case of `CCOC(=O)CC(=O)CSc1c(-c2ccccc2)c(=O)n(-c2ccccc2)c(=S)n1-c1ccccc1`, the GI50 was 51.4 µM (inactive) in the experiment with CCRF-CEM; > 100 µM (inactive) in the experiment with HCT-116; more than 100 µM in the experiment on HCT-15; > 100 µM (inactive) with HL-60; > 100 µM (inactive) in the experiment with HOP-62; > 100 µM (inactive) in the experiment with HOP-92. Also, the GI50 with IGROV-1 is 19.8 µM (inactive); with KM12 it was > 100 µM (inactive); in the experiment with MOLT-4, 38.9 µM (inactive); in the experiment on NCI-H23, > 100 µM (inactive); with OVCAR-3 it was > 100 µM (inactive); in the experiment on OVCAR-4, > 100 µM (inactive). Also, the GI50 in the experiment on RXF 393, in the experiment with SF-539, in the experiment with SK-OV-3, in the experiment with SN12C, in the experiment with U-251 and with UO-31 was > 100 µM (inactive) in each case.
For `Cc1ccc(Nc2n[nH]c(NS(=O)(=O)c3cc(C(=O)Nc4ccc(Cl)cc4)c(Cl)cc3S)n2)cc1`, the GI50 with CCRF-CEM is > 100 µM (inactive); in the experiment with HCT-116 it was > 100 µM (inactive); in the experiment on HCT-15 it was more than 100 µM; with HL-60, 33.7 µM (inactive); with HOP-62, > 100 µM (inactive); with IGROV-1 it was > 100 µM (inactive). Moreover, the GI50 with KM12, with MOLT-4, with NCI-H23, with OVCAR-3, in the experiment on OVCAR-4 and in the experiment on RPMI-8226 was > 100 µM (inactive) each time. Moreover, the GI50 was 62.2 µM (inactive) with RXF 393; > 100 µM (inactive) in the experiment with SF-539; > 100 µM (inactive) in the experiment with SK-MEL-5; > 100 µM (inactive) with SK-OV-3; > 100 µM (inactive) in the experiment on SN12C; 54.8 µM (inactive) with U-251. Besides, the GI50 in the experiment on UO-31 was > 100 µM (inactive).
Regarding `CC(=O)O[C@]12CCCCCC1C1(O)C(O)CCCC[C@H]12` (some centres not stated), the GI50 is > 100 µM (inactive) in the experiment on CCRF-CEM; more than 100 µM in the experiment on HCT-15; > 100 µM (inactive) in the experiment with HL-60; > 100 µM (inactive) in the experiment on HOP-62; > 100 µM (inactive) with KM12; > 100 µM (inactive) with MOLT-4. Also, the GI50 with NCI-H23, with OVCAR-4, in the experiment on RPMI-8226, in the experiment on RXF 393, in the experiment with SK-MEL-5 and in the experiment with SK-OV-3 was > 100 µM (inactive) throughout. The GI50 with SN12C, with U-251 and in the experiment with UO-31 was > 100 µM (inactive) throughout.
